IC50 data for 21 compounds are collected here from patent publication US20260166039A1 (SCHRÖDINGER, INC., priority 2022, published 2026).

T1 sequence (P30291 299-569 limits assumed): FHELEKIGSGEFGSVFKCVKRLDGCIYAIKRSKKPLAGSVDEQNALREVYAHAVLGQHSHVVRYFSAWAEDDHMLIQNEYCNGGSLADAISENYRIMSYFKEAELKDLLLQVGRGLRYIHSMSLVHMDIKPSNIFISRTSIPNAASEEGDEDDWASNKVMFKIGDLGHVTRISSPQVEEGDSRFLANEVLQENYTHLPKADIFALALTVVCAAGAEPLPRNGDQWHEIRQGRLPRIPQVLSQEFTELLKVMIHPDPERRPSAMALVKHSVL

One test has as its target T1, Wee1 kinase domain (Homo sapiens, UniProt P30291).
T1 construct: Wee1 kinase domain was purchased from Carna (catalog #05-177); purchased Carna 05-177
Nature of the test: Wee1 Kinase Biochemical Assay (ADP-Glo). To be noted: Wee1 kinase domain, 15 uM ATP, ADP-Glo. In short, it runs like this: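 The reaction mix held 1 nM Wee1 kinase domain, 15 uM ATP and 2 ng/mL Poly(Lys,Tyr 4:1) substrate and was left for 4 hours at 25 °C. ADP production was then measured with ADP-Glo, and percent inhibition was derived relative to DMSO and a saturating Wee1 inhibitor.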
Regarding `CNCc1cccc(N2c3nc(Nc4ccc(N5CC6CC5CO6)cc4)ncc3[C@]3(C)COC(C)(C)C[C@H]23)n1` (stereo in doubt) [Example 42, (4bS,8aS)-N-(4-((1R,4R)-2-oxa-5-azabicyclo[2.2.1]heptan-5-yl)phenyl)-4b,7,7-trimethyl-9-(6-((methylamino)methyl)pyridin-2-yl)-4b,5,7,8,8a,9-hexahydropyrano[3′,4′:4,5]pyrrolo[2,3-d]pyrimidin-2-amine], the IC50 lay in the range of 10 to 100 nM.
Consider `CNCc1cccc(N2c3nc(Nc4ccc(N5C[C@@H](C)O[C@@H](C)C5)cc4)ncc3[C@]3(C)COC(C)(C)C[C@H]23)n1` [Example 19, (4bS,8aS)-N-(4-((2S,6R)-2,6-dimethylmorpholino)phenyl)-4b,7,7-trimethyl-9-(6-((methylamino)methyl)pyridin-2-yl)-4b,5,7,8,8a,9-hexahydropyrano[3′,4′:4,5]pyrrolo[2,3-d]pyrimidin-2-amine], for which the IC50 was 100 to 1000 nM.
For `CNCc1cccc(N2c3nc(NC45CC(C4)C5)ncc3[C@@]3(C)COC(C)(C)C[C@@H]23)n1` [Example 89, (4bR,8aR)-N-(bicyclo[1.1.1]pentan-1-yl)-4b,7,7-trimethyl-9-(6-((methylamino)methyl)pyridin-2-yl)-4b,5,7,8,8a,9-hexahydropyrano[3′,4′:4,5]pyrrolo[2,3-d]pyrimidin-2-amine], the IC50 was ≥ 1000 nM.
Still for that read-out and setting: the value for `CN1CCN(c2ccc(Nc3ncc4c(n3)N(c3cccc(N=S(C)(C)=O)n3)[C@H]3CC(C)(C)OC[C@@]43C)cc2)CC1` [Example 99, dimethyl((6-((4bS,8aS)-4b,7,7-trimethyl-2-((4-(4-methylpiperazin-1-yl)phenyl)amino)-4b,7,8,8a-tetrahydropyrano[3′,4′:4,5]pyrrolo[2,3-d]pyrimidin-9(5H)-yl)pyridin-2-yl)imino)-16-sulfanone] was 100 to 1000 nM; that for `CN1CCC(n2cc(Nc3ncc4c(n3)N(c3cccc(N=S(C)(C)=O)n3)[C@H]3CC(C)(C)OC[C@@]43C)cn2)C1` (stereo partly drawn) [Example 195, dimethyl((6-((4bS,8aS)-4b,7,7-trimethyl-2-((1-((R)-1-methylpyrrolidin-3-yl)-1H-pyrazol-4-yl)amino)-4b,7,8,8a-tetrahydropyrano[3′,4′:4,5]pyrrolo[2,3-d]pyrimidin-9(5H)-yl)pyridin-2-yl)imino)-16-sulfanone] was 100 to 1000 nM.
On the same count and under the same terms, under `CC1(C)C[C@H]2N(c3cccc(N=S(C)(C)=O)n3)c3nc(Nc4ccc5nccn5n4)ncc3[C@@]2(C)CO1` [Example 361, ((6-((4bR,8aR)-2-(imidazo[1,2-b]pyridazin-6-ylamino)-4b,7,7-trimethyl-4b,7,8,8a-tetrahydropyrano[3′,4′:4,5]pyrrolo[2,3-d]pyrimidin-9(5H)-yl)pyridin-2-yl)imino)dimethyl-l6-sulfanone] stands < 10 nM.

The test is the same for the next values; noted with them: class symbols; 1 nM Wee1 enzyme, 15 uM ATP, 4 hours at 25° C.
As to `C[C@H]1CCC(=O)N1c1cccc(N2c3nc(Nc4cnn(C5CCN(C)CC5)c4)ncc3C3(C)COC(C)(C)CC23)n1` (stereo in doubt) [Example 555, (S)-5-methyl-1-(6-((4bS,8aS)-4b,7,7-trimethyl-2-((1-(1-methylpiperidin-4-yl)-1H-pyrazol-4-yl)amino)-4b,7,8,8a-tetrahydropyrano[3′,4′:4,5]pyrrolo[2,3-d]pyrimidin-9(5H)-yl)pyridin-2-yl)pyrrolidin-2-one], the IC50 was in the range of 10 to 100 nM.
`CC1(C)CC2N(c3cccc([C@@H]4COCCN4)n3)c3nc(Nc4ccc(N5CCOCC5)cc4)ncc3C2(C)CO1` (stereo in doubt) [Example 733, (4bS,8aS)-4b,7,7-trimethyl-9-(6-((R)-morpholin-3-yl)pyridin-2-yl)-N-(4-morpholinophenyl)-4b,5,7,8,8a,9-hexahydropyrano[3′,4′:4,5]pyrrolo[2,3-d]pyrimidin-2-amine] gave an IC50 of 10 to 100 nM.
Same read-out and setting: the value for `CC1(C)C[C@@H]2N(c3cccc(N4CCOC4=O)n3)c3nc(Nc4ccc([C@H]5CCNC5)cc4)ncc3[C@]2(C)CO1` [Example 609, 3-(6-((4bS,8aS)-4b,7,7-trimethyl-2-((4-((R)-pyrrolidin-3-yl)phenyl)amino)-4b,7,8,8a-tetrahydropyrano[3′,4′:4,5]pyrrolo[2,3-d]pyrimidin-9(5H)-yl)pyridin-2-yl)oxazolidin-2-one] was 10 to 100 nM; that for `CN(C)Cc1cccc(N2c3nc(Nc4ccc(C(C)(C)C(=O)O)cc4)ncc3[C@]3(C)COC(C)(C)C[C@H]23)n1` [Example 610, 2-(4-(((4bS,8aS)-9-(6-((dimethylamino)methyl)pyridin-2-yl)-4b,7,7-trimethyl-4b,5,7,8,8a,9-hexahydropyrano[3′,4′:4,5]pyrrolo[2,3-d]pyrimidin-2-yl)amino)phenyl)-2-methylpropanoic acid] was ≥ 1000 nM.
Still for that read-out and setting: the value for `CC1(C)C[C@@H]2N(c3cccc(N4CCOC4=O)n3)c3nc(Nc4ccc(O[C@H]5CCNC5)cc4)ncc3[C@]2(C)CO1` [Example 612, 3-(6-((4bS,8aS)-4b,7,7-trimethyl-2-((4-(((S)-pyrrolidin-3-yl)oxy)phenyl)amino)-4b,7,8,8a-tetrahydropyrano[3′,4′:4,5]pyrrolo[2,3-d]pyrimidin-9(5H)-yl)pyridin-2-yl)oxazolidin-2-one] was 100 to 1000 nM; that for `CN1CC[C@H](Oc2ccc(Nc3ncc4c(n3)N(c3cccc(N5CCOC5=O)n3)[C@H]3CC(C)(C)OC[C@@]43C)cc2)C1` [Example 614, 3-(6-((4bS,8aS)-4b,7,7-trimethyl-2-((4-(((S)-1-methylpyrrolidin-3-yl)oxy)phenyl)amino)-4b,7,8,8a-tetrahydropyrano[3′,4′:4,5]pyrrolo[2,3-d]pyrimidin-9(5H)-yl)pyridin-2-yl)oxazolidin-2-one] was 100 to 1000 nM; that for `CC1(C)C[C@@H]2N(c3cccc(N4CCCC4=O)n3)c3nc(Nc4ccc(O[C@@H]5CCNC5)cc4)ncc3[C@]2(C)CO1` [Example 617, 1-(6-((4bS,8aS)-4b,7,7-trimethyl-2-((4-(((R)-pyrrolidin-3-yl)oxy)phenyl)amino)-4b,7,8,8a-tetrahydropyrano[3′,4′:4,5]pyrrolo[2,3-d]pyrimidin-9(5H)-yl)pyridin-2-yl)pyrrolidin-2-one] was 100 to 1000 nM.
The same measure, in the same setting: the value for `CN1CC[C@H](Oc2ccc(Nc3ncc4c(n3)N(c3cccc(N5CCCC5=O)n3)[C@H]3CC(C)(C)OC[C@@]43C)cc2)C1` [Example 619, 1-(6-((4bS,8aS)-4b,7,7-trimethyl-2-((4-(((S)-1-methylpyrrolidin-3-yl)oxy)phenyl)amino)-4b,7,8,8a-tetrahydropyrano[3′,4′:4,5]pyrrolo[2,3-d]pyrimidin-9(5H)-yl)pyridin-2-yl)pyrrolidin-2-one] was 10 to 100 nM.
`CC1(C)C[C@@H]2N(c3cccc(N4CCCC4=O)n3)c3nc(Nc4ccc(O[C@H]5CCNC5)cc4)ncc3[C@]2(C)CO1` [Example 621, 1-(6-((4bS,8aS)-4b,7,7-trimethyl-2-((4-(((S)-pyrrolidin-3-yl)oxy)phenyl)amino)-4b,7,8,8a-tetrahydropyrano[3′,4′:4,5]pyrrolo[2,3-d]pyrimidin-9(5H)-yl)pyridin-2-yl)pyrrolidin-2-one]: the IC50 lay within 100 to 1000 nM.
Still for that read-out and setting: under `CC1(C)C[C@@H]2N(c3cccc(N4CCOC4=O)n3)c3nc(Nc4ccc(O[C@@H]5CCNC5)cc4)ncc3[C@]2(C)CO1` [Example 623, 3-(6-((4bS,8aS)-4b,7,7-trimethyl-2-((4-(((R)-pyrrolidin-3-yl)oxy)phenyl)amino)-4b,7,8,8a-tetrahydropyrano[3′,4′:4,5]pyrrolo[2,3-d]pyrimidin-9(5H)-yl)pyridin-2-yl)oxazolidin-2-one] stands 10 to 100 nM; under `CN1CC[C@@H](Oc2ccc(Nc3ncc4c(n3)N(c3cccc(N5CCOC5=O)n3)[C@H]3CC(C)(C)OC[C@@]43C)cc2)C1` [Example 625, 3-(6-((4bS,8aS)-4b,7,7-trimethyl-2-((4-(((R)-1-methylpyrrolidin-3-yl)oxy)phenyl)amino)-4b,7,8,8a-tetrahydropyrano[3′,4′:4,5]pyrrolo[2,3-d]pyrimidin-9(5H)-yl)pyridin-2-yl)oxazolidin-2-one], 10 to 100 nM; under `CN1CC[C@@H](Oc2ccc(Nc3ncc4c(n3)N(c3cccc(N5CCCC5=O)n3)[C@H]3CC(C)(C)OC[C@@]43C)cc2)C1` [Example 627, 1-(6-((4bS,8aS)-4b,7,7-trimethyl-2-((4-(((R)-1-methylpyrrolidin-3-yl)oxy)phenyl)amino)-4b,7,8,8a-tetrahydropyrano[3′,4′:4,5]pyrrolo[2,3-d]pyrimidin-9(5H)-yl)pyridin-2-yl)pyrrolidin-2-one], 10 to 100 nM.
With `CN1C[C@@H]2C[C@H]1CN2c1ccc(Nc2ncc3c(n2)N(c2cccc(N4CCCC4=O)n2)[C@H]2CC(C)(C)OC[C@@]32C)cc1` [Example 628, 1-(6-((4bS,8aS)-4b,7,7-trimethyl-2-((4-((1S,4S)-5-methyl-2,5-diazabicyclo[2.2.1]heptan-2-yl)phenyl)amino)-4b,7,8,8a-tetrahydropyrano[3′,4′:4,5]pyrrolo[2,3-d]pyrimidin-9(5H)-yl)pyridin-2-yl)pyrrolidin-2-one], the IC50 lay within 100 to 1000 nM.
The same measure, in the same setting: the value for `CN1C[C@H]2C[C@@H]1CN2c1ccc(Nc2ncc3c(n2)N(c2cccc(N4CCCC4=O)n2)[C@H]2CC(C)(C)OC[C@@]32C)cc1` [Example 630, 1-(6-((4bS,8aS)-4b,7,7-trimethyl-2-((4-((1R,4R)-5-methyl-2,5-diazabicyclo[2.2.1]heptan-2-yl)phenyl)amino)-4b,7,8,8a-tetrahydropyrano[3′,4′:4,5]pyrrolo[2,3-d]pyrimidin-9(5H)-yl)pyridin-2-yl)pyrrolidin-2-one] was 100 to 1000 nM.
The same measure, in the same setting: under `CC1(C)C[C@@H]2N(c3cccc(N4CCCC4=O)n3)c3nc(Nc4ccc([C@@H]5CCNC5)cc4)ncc3[C@]2(C)CO1` [Example 633, 1-(6-((4bS,8aS)-4b,7,7-trimethyl-2-((4-((S)-pyrrolidin-3-yl)phenyl)amino)-4b,7,8,8a-tetrahydropyrano[3′,4′:4,5]pyrrolo[2,3-d]pyrimidin-9(5H)-yl)pyridin-2-yl)pyrrolidin-2-one] stands 10 to 100 nM.

As usually defined, the IC50 is the midpoint of a concentration-inhibition curve. A lower IC50 goes with greater potency.
